Experimental data: US20160297830A1, “NOVEL COMPOUNDS USEFUL FOR THE TREATMENT OF BACTERIAL INFECTIOUS DISEASES” (GALAPAGOS NV, priority 2013, published 2016)
In brackets after ≈: the same amount, converted by molar mass. Read-outs that look alike come from different tables or passages of the source.

Legend:
[1] = system: S. aureus Sa26 ATCC 25923; assay: Antibacterial activity assay (MIC), S. aureus Sa26; type: cell-based; details: Staphylococcus aureus
[2] = system: S. aureus Sa2 clinical strain NCIMB 41953, MRSA; assay: microbe, parasite or virus in culture; type: cell-based; details: Staphylococcus aureus, read-out: MIC Sa2
[3] = system: E. coli Ec50 efflux pump KO; assay: microbe, parasite or virus in culture; type: cell-based; details: Escherichia coli, read-out: MIC Ec50 efflux pump KO
[4] = system: H. influenza Hi106 ATCC 51907; assay: organism not typed; type: cell-based; details: read-out: MIC Hi106
[5] = system: E. coli Ec1 ATCC 25922; assay: Antibacterial activity assay (MIC), E. coli Ec1; type: cell-based; details: Escherichia coli
[6] = system: H. influenza Hi47 clinical strain, Ampicillin Resistant; assay: organism not typed; type: cell-based; details: read-out: MIC Hi47
[7] = system: S. aureus Sa1 ATCC 13709; assay: microbe, parasite or virus in culture; type: cell-based; details: Staphylococcus aureus
[8] = system: E. coli Ec113 efflux pump KO; assay: microbe, parasite or virus in culture; type: cell-based; details: Escherichia coli, read-out: MIC Ec113 efflux pump KO
[9] = system: H. influenza Hi3 ATCC 31517; assay: organism not typed; type: cell-based; details: read-out: MIC Hi3
[10] = system: S. aureus Sa4 NCTC 6571; assay: Antibacterial activity assay (MIC), S. aureus Sa4; type: cell-based; details: Staphylococcus aureus
[11] = target: DNA III Polymerase E (Escherichia coli, UniProt P10443); assay: In vitro activity against DNA III Polymerase E, E. coli; type: biochemical
Sequence of DNA III Polymerase E (P10443 whole entry): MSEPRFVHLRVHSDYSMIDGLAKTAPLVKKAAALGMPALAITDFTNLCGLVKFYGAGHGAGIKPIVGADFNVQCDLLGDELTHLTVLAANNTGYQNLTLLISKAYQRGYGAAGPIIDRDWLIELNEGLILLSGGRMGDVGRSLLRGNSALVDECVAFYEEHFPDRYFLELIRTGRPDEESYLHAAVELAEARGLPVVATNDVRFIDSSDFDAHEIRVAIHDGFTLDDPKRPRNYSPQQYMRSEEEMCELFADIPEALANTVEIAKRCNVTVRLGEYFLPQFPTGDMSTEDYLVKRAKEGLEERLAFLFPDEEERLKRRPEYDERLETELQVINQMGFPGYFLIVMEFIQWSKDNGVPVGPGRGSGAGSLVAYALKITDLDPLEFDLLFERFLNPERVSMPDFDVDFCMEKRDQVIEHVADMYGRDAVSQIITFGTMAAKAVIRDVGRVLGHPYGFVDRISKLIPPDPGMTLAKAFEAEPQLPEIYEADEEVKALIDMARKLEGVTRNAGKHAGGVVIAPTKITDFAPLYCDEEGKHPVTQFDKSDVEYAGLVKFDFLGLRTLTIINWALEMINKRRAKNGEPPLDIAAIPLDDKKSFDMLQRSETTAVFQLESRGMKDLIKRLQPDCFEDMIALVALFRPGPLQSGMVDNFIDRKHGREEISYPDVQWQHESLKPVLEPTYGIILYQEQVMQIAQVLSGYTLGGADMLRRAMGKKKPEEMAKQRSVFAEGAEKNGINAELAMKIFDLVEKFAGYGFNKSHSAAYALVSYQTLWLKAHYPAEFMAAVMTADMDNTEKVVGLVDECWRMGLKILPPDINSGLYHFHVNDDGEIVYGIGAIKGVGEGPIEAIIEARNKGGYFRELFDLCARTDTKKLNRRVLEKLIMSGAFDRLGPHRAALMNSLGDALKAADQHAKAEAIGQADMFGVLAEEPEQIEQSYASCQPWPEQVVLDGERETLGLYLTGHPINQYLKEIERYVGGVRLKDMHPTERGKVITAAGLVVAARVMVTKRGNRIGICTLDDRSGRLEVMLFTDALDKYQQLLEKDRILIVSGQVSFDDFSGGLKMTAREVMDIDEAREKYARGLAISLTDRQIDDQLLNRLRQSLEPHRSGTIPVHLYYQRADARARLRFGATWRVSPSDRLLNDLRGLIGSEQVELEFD
In short: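 Recombinant enzyme (0.47 μg/mL diluted stock) in 20 mM Tris pH7.5, 8 mM DTT, 10 mM MgOAc, 0.05% CHAPS met compound series from 100 μM top, 1/5 steps. Activated calf thymus DNA, dNTPs and [α-33P]-dTTP substrate were added, and incubation ran 120 min at 30° C. IC50 came from filter-captured incorporated radioactivity versus controls.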

[12] = system: Methicillin Resistant S. aureus (MRSA); assay: Neutropenic mouse thigh infection model; details: Thigh Sa, Study 9; 50 mg/kg PO BID; sample time 24 h PI
[13] = system: Methicillin Resistant S. aureus Sa2 (MRSA); assay: animal or person; type: in vivo; details: lung; for log reduction at 50 mg/kg: 24 h, read-out: Log reduction vs. untreated, Study 3
[14] = system: H. influenza Hi10 clinical strain; assay: organism not typed; type: cell-based; details: read-out: MIC Hi10
[15] = target: DNA Polymerase IIIα (DnaE) from Staphylococcus aureus (Staphylococcus aureus, UniProt Q6GG04); assay: biochemical
Sequence of DNA Polymerase IIIα (DnaE) from Staphylococcus aureus (Q6GG04 1-1022): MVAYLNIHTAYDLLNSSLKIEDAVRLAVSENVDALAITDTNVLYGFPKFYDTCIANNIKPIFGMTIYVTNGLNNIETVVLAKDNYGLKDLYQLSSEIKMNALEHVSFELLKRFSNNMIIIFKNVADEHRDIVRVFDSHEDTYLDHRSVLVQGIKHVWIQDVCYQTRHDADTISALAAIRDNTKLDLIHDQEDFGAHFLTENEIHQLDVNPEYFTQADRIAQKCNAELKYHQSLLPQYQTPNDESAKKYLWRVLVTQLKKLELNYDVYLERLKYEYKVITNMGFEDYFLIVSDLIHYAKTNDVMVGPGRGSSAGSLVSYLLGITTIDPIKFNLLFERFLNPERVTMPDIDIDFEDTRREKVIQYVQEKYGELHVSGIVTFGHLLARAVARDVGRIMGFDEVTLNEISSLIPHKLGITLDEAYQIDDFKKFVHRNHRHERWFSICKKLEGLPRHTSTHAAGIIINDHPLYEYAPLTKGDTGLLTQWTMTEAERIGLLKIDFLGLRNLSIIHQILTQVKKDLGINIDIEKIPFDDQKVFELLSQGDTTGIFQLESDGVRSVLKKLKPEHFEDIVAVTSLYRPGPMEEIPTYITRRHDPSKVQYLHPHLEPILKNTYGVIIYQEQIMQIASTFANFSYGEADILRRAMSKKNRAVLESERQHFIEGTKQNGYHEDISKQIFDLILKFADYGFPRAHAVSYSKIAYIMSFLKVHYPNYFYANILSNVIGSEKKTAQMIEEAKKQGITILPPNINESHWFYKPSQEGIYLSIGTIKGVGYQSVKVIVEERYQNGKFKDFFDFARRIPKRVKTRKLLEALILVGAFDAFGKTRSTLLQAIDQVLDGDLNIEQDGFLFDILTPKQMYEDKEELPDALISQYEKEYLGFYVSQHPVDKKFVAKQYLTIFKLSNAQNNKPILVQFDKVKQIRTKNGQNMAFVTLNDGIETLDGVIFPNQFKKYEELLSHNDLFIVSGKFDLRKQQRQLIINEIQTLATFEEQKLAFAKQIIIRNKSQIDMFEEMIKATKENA

[16] = ATCC25923, read-out: MIC Sa26 + 10% SH, S. aureus Sa26 + 10% SH
[17] = ATCC25923, read-out: MIC Sa26 + 50% SH, S. aureus Sa26 + 50% SH
[18] = ATCC25923, S. aureus Sa26 ATCC 25923, sensitive strain, Mueller-Hinton Broth, 37° C., read-out: MIC Sa26
[19] = ATCC25922, E. coli Ec1 ATCC 25922, sensitive strain, read-out: MIC Ec1
[20] = ATCC13709, S. aureus Sa1 ATCC 13709, sensitive strain, Mueller-Hinton Broth, 37° C., read-out: MIC Sa1
[21] = NCTC6571, S. aureus Sa4 NCTC 6571, sensitive strain, read-out: MIC Sa4
[22] = Staphylococcus aureus, MRSA, in Mus musculus, po, 50 mg/kg PO BID, sample 24 h post infection
[23] = Study 3, 50 mg/kg PO BID, sample 24 h post infection
[24] = DNA polymerase III, E. coli, read-out: IC50 semiquantitative scoring, E. coli

| Compound | MIC [1, 16] [µg/mL] | MIC [1, 17] [µg/mL] | MIC [1, 18] [µg/mL] | MIC [2] [µg/mL] | MIC [3] [µg/mL] | MIC [4] [µg/mL] | MIC [5, 19] [µg/mL] | MIC [6] [µg/mL] | MIC [7, 20] [µg/mL] | MIC [8] [µg/mL] | MIC [9] [µg/mL] | MIC [10, 21] [µg/mL] | IC50 [11] [µM] | log reduction at 50 mg/kg [13, 22] | Active [13, 23] | MIC [14] [µg/mL] | IC50 [15] [µM] | IC50 [11, 24] [µM] | other results |
| --- | --- | --- | --- | --- | --- | --- | --- | --- | --- | --- | --- | --- | --- | --- | --- | --- | --- | --- | --- |
| COC[C@@H]1[C@@H](O)[C@@H]2[C@H]3C=C[C@@H]4[C@@H](COC)C(=O)O[C@H]([C@H](O)COC)[C@H](C)/C=C(\C)[C@@]24O[C@H]3[C@@H]1OC(=O)c1cc(F)c[nH]1 [Compound 19, 8-O-4-Fluoro-1H-pyrrole-2′-carbonylbranimycin] | 0.5 | 1 | 0.5 (≈ 0.842 µM) | 0.5 (≈ 0.842 µM) | 64 (≈ 108 µM) | > 64 | > 64 | > 64 | 0.5 (≈ 0.842 µM) | 0.5 (≈ 0.842 µM) | > 64 | 0.25 (≈ 0.421 µM) | 1.68 to 16.8 | 3.56 | Y | > 64 | 0.00168 to 1.68 | – | Active [12]: Y; Log reduction vs. untreated [12]: −3.28; log reduction at 25 mg/kg ([13]; Staphylococcus aureus, MRSA, in Mus musculus, po, 72 h, read-out: Log reduction vs. untreated, Study 6, 25 mg/kg PO QD, sample 72 h post infection): 3.65; Active ([13]; Study 6, 25 mg/kg PO QD, sample 72 h post infection): Y |
| COC[C@@H]1[C@@H](O)[C@@H]2[C@H]3C=C[C@@H]4[C@@H](COC)C(=O)O[C@H]([C@H](O)COC)[C@H](C)/C=C(\C)[C@@]24O[C@H]3[C@@H]1OC(=O)c1cc(Cl)c[nH]1 [Compound 28, 8-O-4-Chloro-1H-pyrrole-2′-carbonylbranimycin] | 4 | 16 | 4 (≈ 6.56 µM) | 4 (≈ 6.56 µM) | 64 (≈ 105 µM) | 64 (≈ 105 µM) | > 64 | 64 (≈ 105 µM) | 2 (≈ 3.28 µM) | 1 (≈ 1.64 µM) | > 64 | 4 (≈ 6.56 µM) | 1.64 to 16.4 | 1.64 | N | 64 (≈ 105 µM) | 0.00164 to 1.64 | – | – |
| COC[C@@H]1[C@@H](O)[C@@H]2[C@H]3C=C[C@@H]4[C@@H](COC)C(=O)O[C@H]([C@H](O)COC)[C@H](C)/C=C(\C)[C@@]24O[C@H]3[C@@H]1OC(=O)c1cnco1 [Compound 14, 8-O-Oxazole-5′ carbonylbranimycin] | – | – | – | > 64 | > 64 | > 64 | – | > 64 | – | 16 (≈ 27.7 µM) | > 64 | – | – | – | – | > 64 | 1.73 to 17.3 | > 17.3 | MIC ([1]; ATCC25923, read-out: MIC Sa26): > 64 µg/mL; MIC ([1]; ATCC25923, read-out: MIC Sa26 + 10% SH): > 64 µg/mL; MIC ([1]; ATCC25923, read-out: MIC Sa26 + 50% SH): > 64 µg/mL; MIC ([5]; ATCC25922, read-out: MIC Ec1): > 64 µg/mL; MIC ([7]; ATCC13709, read-out: MIC Sa1): > 64 µg/mL; MIC ([10]; NCTC6571, read-out: MIC Sa4): > 64 µg/mL |
| COCC[C@H]1OC(=O)[C@H](COC)[C@H]2C=C[C@H]3[C@H]4O[C@]2(/C(C)=C/[C@H]1C)[C@@H]3[C@H](O)[C@@H](COC)[C@H]4O [Compound 17, 17-Deoxybranimycin] | > 64 | > 64 | > 64 | > 64 | > 64 | > 64 | > 64 | > 64 | > 64 | 8 (≈ 17.1 µM) | > 64 | > 64 | – | – | – | > 64 | – | > 21.4 | IC50 ([15]; DNA polymerase III, S. aureus, read-out: IC50 semiquantitative scoring, S. aureus): 0.00214 to 2.14 µM |
